# pIC50: −log10 of the molar value. Entries after “also recorded” stand apart in the source; their conditions may differ.
# Assays:
# [1] = biological target: T1, human 12-LOX (Homo sapiens, UniProt P18054); experiment: colorimetric platelet 12-LOX activity assay (ferric oxidation of xylenol orange, human blood platelets); format: cell-based
# T1 construct: ferric oxidation of xylenol orange from arachidonic acid in human blood platelets; endogenous in cells; host or cells: human blood platelets
# T1 sequence (P18054 1-663): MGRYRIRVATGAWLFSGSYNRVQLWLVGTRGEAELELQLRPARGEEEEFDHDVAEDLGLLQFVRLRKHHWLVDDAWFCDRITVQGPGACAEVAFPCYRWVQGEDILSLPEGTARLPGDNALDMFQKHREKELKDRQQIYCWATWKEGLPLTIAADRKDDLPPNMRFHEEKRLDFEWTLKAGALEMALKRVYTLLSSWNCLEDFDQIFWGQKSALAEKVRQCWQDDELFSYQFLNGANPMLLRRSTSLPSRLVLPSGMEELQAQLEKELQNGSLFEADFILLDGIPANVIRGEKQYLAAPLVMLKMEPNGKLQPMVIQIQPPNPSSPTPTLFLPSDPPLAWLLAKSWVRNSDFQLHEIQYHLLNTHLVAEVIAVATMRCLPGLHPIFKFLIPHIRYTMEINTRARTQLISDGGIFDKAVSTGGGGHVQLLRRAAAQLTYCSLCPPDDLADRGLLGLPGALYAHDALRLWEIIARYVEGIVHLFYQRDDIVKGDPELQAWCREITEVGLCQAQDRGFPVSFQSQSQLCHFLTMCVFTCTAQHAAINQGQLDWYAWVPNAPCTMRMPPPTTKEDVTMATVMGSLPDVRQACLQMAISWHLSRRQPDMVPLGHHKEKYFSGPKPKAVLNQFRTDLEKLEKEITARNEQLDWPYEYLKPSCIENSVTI
# Source text: (§1) Table 3 provides results for exemplary subject bisindole compounds on 5-LOX, 12-LOX and 15-LOX.
# [2] = biological target: T2, 5-LOX (Homo sapiens, UniProt P09917); experiment: enzyme panel screening, 5-LOX; format: biochemical
# T2 sequence (P09917 1-674): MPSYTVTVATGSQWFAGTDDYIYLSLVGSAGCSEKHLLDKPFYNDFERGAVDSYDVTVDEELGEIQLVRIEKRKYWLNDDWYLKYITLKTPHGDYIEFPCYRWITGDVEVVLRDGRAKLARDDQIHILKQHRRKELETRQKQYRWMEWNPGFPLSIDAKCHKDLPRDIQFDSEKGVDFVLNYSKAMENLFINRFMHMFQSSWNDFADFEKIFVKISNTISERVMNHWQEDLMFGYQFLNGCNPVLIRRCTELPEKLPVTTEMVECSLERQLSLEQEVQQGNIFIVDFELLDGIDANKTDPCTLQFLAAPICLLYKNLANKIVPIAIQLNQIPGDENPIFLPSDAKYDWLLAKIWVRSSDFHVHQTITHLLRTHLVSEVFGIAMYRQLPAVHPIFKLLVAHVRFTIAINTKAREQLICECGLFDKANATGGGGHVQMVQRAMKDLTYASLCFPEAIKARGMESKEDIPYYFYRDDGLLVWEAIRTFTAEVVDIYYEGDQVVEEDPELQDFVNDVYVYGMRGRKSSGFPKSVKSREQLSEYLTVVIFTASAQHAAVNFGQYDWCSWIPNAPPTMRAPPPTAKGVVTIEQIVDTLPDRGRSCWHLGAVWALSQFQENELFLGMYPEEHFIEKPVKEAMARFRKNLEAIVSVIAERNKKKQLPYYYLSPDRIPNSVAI
# [3] = test system: 15-LOX; experiment: enzyme panel screening, 15-LOX; format: biochemical
# [4] = biological target: COX-1 (Homo sapiens, UniProt P23219); experiment: effect on cyclooxygenase COX-1 activity; format: biochemical
# [5] = biological target: T3, COX-2 (Homo sapiens, UniProt P35354); experiment: effect on cyclooxygenase COX-2 activity; format: biochemical
# T3 sequence (P35354 18-604): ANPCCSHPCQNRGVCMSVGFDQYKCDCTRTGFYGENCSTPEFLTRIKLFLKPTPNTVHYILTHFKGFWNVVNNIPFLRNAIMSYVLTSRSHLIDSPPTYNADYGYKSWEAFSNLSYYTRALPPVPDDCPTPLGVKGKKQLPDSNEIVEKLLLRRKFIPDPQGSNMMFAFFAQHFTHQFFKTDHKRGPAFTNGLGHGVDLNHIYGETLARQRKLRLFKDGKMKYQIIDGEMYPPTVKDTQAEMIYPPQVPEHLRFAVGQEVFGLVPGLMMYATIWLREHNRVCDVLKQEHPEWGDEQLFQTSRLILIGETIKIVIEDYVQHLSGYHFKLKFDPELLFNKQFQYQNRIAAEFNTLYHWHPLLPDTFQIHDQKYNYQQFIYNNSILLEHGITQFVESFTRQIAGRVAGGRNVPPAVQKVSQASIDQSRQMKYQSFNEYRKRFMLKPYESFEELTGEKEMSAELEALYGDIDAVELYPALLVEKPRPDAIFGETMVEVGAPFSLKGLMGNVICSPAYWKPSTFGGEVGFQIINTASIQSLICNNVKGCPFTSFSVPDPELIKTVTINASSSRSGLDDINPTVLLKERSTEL
# [6] = biological target: kinase targets, including Akt(1,2,3), PI3K, and PDK1; experiment: kinase panel screening; format: biochemical; conditions: broad selection of kinase targets incl. Akt(1,2,3)
# [7] = test system: Akt and ERK activation; experiment: Akt and ERK activation; format: cell-based; conditions: by inhibiting 12-LOX mediated metabolism of arachidonic acid
# [8] = glucose metabolism and body weight in mice after oral treatment; format: in vivo
# [9] = biological target: T2, 5-LOX; experiment: fluorescence-based enzyme assay of human 5-LOX (Table 3); format: biochemical; conditions: 3 μM
# Source text: as §1
# [10] = biological target: T4, 15-LOX-2 (Homo sapiens, UniProt O15296); experiment: in vitro 15-LOX-2 inhibition (Table 3); format: biochemical
# T4 sequence (O15296 1-676): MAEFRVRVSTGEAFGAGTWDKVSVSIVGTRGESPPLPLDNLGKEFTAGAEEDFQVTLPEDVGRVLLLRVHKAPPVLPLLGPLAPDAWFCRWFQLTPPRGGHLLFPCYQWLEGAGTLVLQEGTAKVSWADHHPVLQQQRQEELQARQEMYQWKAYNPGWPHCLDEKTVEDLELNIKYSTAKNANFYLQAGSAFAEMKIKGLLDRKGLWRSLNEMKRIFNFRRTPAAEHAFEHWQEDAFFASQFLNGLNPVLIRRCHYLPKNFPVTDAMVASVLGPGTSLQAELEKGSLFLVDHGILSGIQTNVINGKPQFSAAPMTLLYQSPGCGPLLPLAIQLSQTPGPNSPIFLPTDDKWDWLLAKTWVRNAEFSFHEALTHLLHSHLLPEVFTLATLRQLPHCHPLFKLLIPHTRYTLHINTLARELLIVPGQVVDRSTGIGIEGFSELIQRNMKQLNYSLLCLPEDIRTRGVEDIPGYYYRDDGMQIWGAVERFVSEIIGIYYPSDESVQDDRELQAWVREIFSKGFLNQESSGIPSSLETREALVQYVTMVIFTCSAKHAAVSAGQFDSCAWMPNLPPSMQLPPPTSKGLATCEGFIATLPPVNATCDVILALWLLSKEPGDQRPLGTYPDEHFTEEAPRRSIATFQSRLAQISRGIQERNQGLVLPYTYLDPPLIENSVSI
# Source text: as §1
# Sequence of COX-1 (P23219 24-599): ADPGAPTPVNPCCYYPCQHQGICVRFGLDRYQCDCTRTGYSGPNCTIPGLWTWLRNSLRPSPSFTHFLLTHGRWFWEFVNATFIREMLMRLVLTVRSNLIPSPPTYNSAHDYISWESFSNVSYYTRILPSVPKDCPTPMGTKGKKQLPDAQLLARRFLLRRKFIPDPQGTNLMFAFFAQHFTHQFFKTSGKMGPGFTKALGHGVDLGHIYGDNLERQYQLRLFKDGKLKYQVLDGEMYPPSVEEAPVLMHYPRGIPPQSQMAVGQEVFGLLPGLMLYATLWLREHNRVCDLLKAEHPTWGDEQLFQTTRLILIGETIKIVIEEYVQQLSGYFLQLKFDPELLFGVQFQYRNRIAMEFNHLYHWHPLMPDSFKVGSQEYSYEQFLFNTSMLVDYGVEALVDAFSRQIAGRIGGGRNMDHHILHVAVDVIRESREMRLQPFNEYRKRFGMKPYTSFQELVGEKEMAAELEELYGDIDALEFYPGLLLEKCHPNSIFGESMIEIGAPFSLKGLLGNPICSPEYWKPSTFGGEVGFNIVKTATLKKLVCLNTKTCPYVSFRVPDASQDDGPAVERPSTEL
"12-LOX enzyme activity inhibition ([1]; 10 uM, human blood platelets, cell-based assay)",pIC50 ([1]; cell-based enzyme assay),kinase inhibition [6],inhibition at 3 µM [9],inhibition at 3 µM [1],inhibition at 3 µM [10],Compound,selectivity for 12-LOX ([1]; versus panels of kinases and enzymes incl. 5-LOX and 15-LOX),effect on 5-LOX activity [2],effect on 15-LOX activity [3],effect on COX-1 activity [4],effect on COX-2 activity [5],Akt and ERK activation [7],effects on glucose metabolism [8],"effects on body weights ([8]; oral, 500 mg/kg/day, 14 days)","effects on fasting glucose levels ([8]; oral, 500 mg/kg/day, 14 days)"
inhibit 12-LOX enzyme activity,8.00,not a kinase inhibitor,–,–,–,CCOC(=O)c1ccc2[nH]c3c(OC)c4[nH]c5ccc(C(=O)OCC)cc5c4cc3c2c1 [Compound (1)],selective for 12-LOX; also recorded: selectively inhibits 12-lipoxygenase enzyme activity; also recorded: selectively inhibits human 12-LOX,does not significantly affect the activity,does not significantly affect the activity,does not significantly affect the activity,does not significantly affect the activity,inhibit Akt and ERK activation,no adverse effects on glucose metabolism,no adverse effects,no adverse effects
–,–,–,75%,85%,17%,CN(C)CCOc1c2[nH]c3ccc(F)cc3c2c(Cl)c2c1[nH]c1ccc(F)cc12 [drawing 18],–,–,–,–,–,–,–,–,–
–,–,–,87%,87%,41%,Fc1ccc2[nH]c3c(OC[C@@H]4C[C@H](F)CN4)c4[nH]c5ccc(F)cc5c4cc3c2c1 [drawing 19],–,–,–,–,–,–,–,–,–
–,–,–,37%,75%,10%,CCOC(=O)c1ccc2[nH]c3c(O[C@H]4CCNC4)c4[nH]c5ccc(C(=O)OCC)cc5c4cc3c2c1 [drawing 20],–,–,–,–,–,–,–,–,–

# Source: patent US20130345214A1, “Lipoxygenase Inhibitors” (SRI International, Inc., priority 2011, published 2013)
